In US4565811A, “Sodium salt of ursodeoxycholic sulphate” (Istituto Biologico Chemioterapico "ABC" S.p.A., priority 1983, dated 1986):
Counter-ions that a name gives are not always drawn.

Assays:
[1] = test system: hyperdislipidemia caused by Triton WR-1339 in the rat; assay: Action on the hyperdislipidemia caused by Triton WR-1339 in the rat; format: in vivo, Albinus rats (Witar); details: for Alfa-Lipoproteins: Increase towards Group 2 / Beta-Lipoproteins: Inhibition towards Group 2 / Beta/alfa ratio: Inhibition towards Group 2 / Total cholesterol: Inhibition in comparison with Group 2 / Total lipids: Inhibition in comparison with Group 2 / Triglycerids: Inhibition in comparison with Group 2: vs Group 2 (Triton control); for Activity compared with UA: oral
Protocol: Action on the hyperdislipidemia caused by Triton WR-1339 in the rat
Albinus rats (Witar) of 300-320 g each, having been fed only with water "ad libitum" for 12 hours, were treated with US and UA, by oral route, 4 hours before and 15 hours after the administration intraperitenously of Triton WR-1339 at the dosage of 300 mg/kg in 10 ml/kg of physiologic solution at 0.9%.
US and UA dosages were 25, 50 and 100 mg/kg respectively and the rats were divided in the following groups of 10 animals each.
Group 1: Controls treated with 10 ml/kg of physiological solution at 0.9% orally.
Group 2: Controls treated with 300 mg/kg of Triton WR-1339 i.p. and 10 ml/kg of carboxy methyl cellulose (CMC) at 0.5%.
Group 3, 4 and 5: UA at 25, 50 and 100 mg/kg respectively suspended in 10 ml/kg of CMC at 0.5%.
Groups 6, 7 and 8: US at 25, 50 and 100 mg/kg respectively dissolved in 10 ml/kg of physiologic solution.
The following Tables 1 and 2 list the results of blood-tests from addominal aorta of rats sacrificed 5 hours after the last treatment: […]

[2] = Acute toxicity of US in the rat by oral administration; format: in vivo; set-up: key to Symptomatology: N: none; D: depression; details: rat, in vivo
Protocol: (§1) Acute toxicity of sodium ursosulphate was tested in rats by administering the different doses of the compound directly in a physiologic solution at 0.9% in a volume either of 10 ml/kg by oral route through a probe directly to the stomach or of 5 ml/kg intraperitoneously or intravenously.
(§2) The dosages administered to groups of 10 animals each are reported in the following Tables 3 to 5 together with the symptomatology observed for a period of 8 days.

rat [3] = assay: as above; format: in vivo; set-up: key to Symptomatology: N: none; D: depression; details: for Symptomatology: 8 days; for Died animals: groups of 10, 8 days
Protocol: as §1, §2

[4] = Acute toxicity of US in the rat by intraperitoneal administration; format: in vivo; set-up: key to Symptomatology: N: none; D: depression; details: rat, in vivo, ip
Protocol: as §1, §2

rat [5] = assay: as above; format: in vivo; set-up: key to Symptomatology: N: none; D: depression; details: for Symptomatology: 8 days; for Died animals: groups of 10, 8 days
Protocol: as §1, §2

[6] = Acute toxicity of US in the rat by intravenous route; format: in vivo; set-up: key to Symptomatology: N: none; D: depression; details: rat, in vivo
Protocol: as §1, §2

rat [7] = assay: as above; format: in vivo; set-up: key to Symptomatology: N: none; D: depression; details: for Symptomatology: 8 days; for Died animals: groups of 10, 8 days
Protocol: as §1, §2

[8] = Solubility in water / acidity; format: physicochemical; details: water
[9] = Toxicity of sodium ursosulphate compared with ursodeoxycholic acid; details: in vivo
[10] = 25 mg/kg os, Triton WR-1339 rat
[11] = 50 mg/kg os, Triton WR-1339 rat
[12] = 100 mg/kg os, Triton WR-1339 rat
[13] = rat, up to the administered doses

## CC(CCC(=O)O)C1CCC2C3C(OS(=O)(=O)O)CC4CC(OS(=O)(=O)O)CCC4(C)C3CCC12C (stereo not drawn) [US, sodium salt of ursodeoxycholic O-sulphate]
[1]; [10]
  Alfa-Lipoproteins Average ± SD: 29,2 ± 6,7 mg/100 ml serum
  Beta-Lipoproteins Average ± SD: 191,5 ± 42,1 mg/100 ml serum
  Beta/alfa ratio Average ± SD: 7,23 ± 3,6 mg/100 ml serum
  Total cholesterol Average ± SD: 220,8 ± 36,4 mg/100 ml serum
  Total lipids Average ± SD: 2697,1 ± 706,8 mg/100 ml serum
  Triglycerids Average ± SD: 1040,6 ± 91,08 mg/100 ml serum
[1]; 25 mg/kg os
  Alfa-Lipoproteins: Increase towards Group 2: +30,4%
  Beta-Lipoproteins: Inhibition towards Group 2: -29,9%
  Beta/alfa ratio: Inhibition towards Group 2: -42,0%
  Total cholesterol: Inhibition in comparison with Group 2: -25,4%
  Total lipids: Inhibition in comparison with Group 2: -29,4%
  Triglycerids: Inhibition in comparison with Group 2: -20,7%
[1]; [11]
  Alfa-Lipoproteins Average ± SD: 39,32 ± 5,5 mg/100 ml serum
  Beta-Lipoproteins Average ± SD: 123,8 ± 27,7 mg/100 ml serum
  Beta/alfa ratio Average ± SD: 3,15 ± 1,1 mg/100 ml serum
  Total cholesterol Average ± SD: 163,2 ± 25,7 mg/100 ml serum
  Total lipids Average ± SD: 1972,6 ± 550,0 mg/100 ml serum
  Triglycerids Average ± SD: 654,3 ± 206,5 mg/100 ml serum
[1]; 50 mg/kg os
  Alfa-Lipoproteins: Increase towards Group 2: +75,4%
  Beta-Lipoproteins: Inhibition towards Group 2: -54,7%
  Beta/alfa ratio: Inhibition towards Group 2: -74,7%
  Total cholesterol: Inhibition in comparison with Group 2: -44,3%
  Total lipids: Inhibition in comparison with Group 2: -48,4%
  Triglycerids: Inhibition in comparison with Group 2: -50,1%
[1]; [12]
  Alfa-Lipoproteins Average ± SD: 44,8 ± 8,5 mg/100 ml serum
  Beta-Lipoproteins Average ± SD: 102,3 ± 36,9 mg/100 ml serum
  Beta/alfa ratio Average ± SD: 2,46 ± 1,2 mg/100 ml serum
  Total cholesterol Average ± SD: 147,2 ± 31,3 mg/100 ml serum
  Total lipids Average ± SD: 1949,7 ± 273,9 mg/100 ml serum
  Triglycerids Average ± SD: 583,4 ± 121,1 mg/100 ml serum
[1]; 100 mg/kg os
  Alfa-Lipoproteins: Increase towards Group 2: +100%
  Beta-Lipoproteins: Inhibition towards Group 2: -72,6%
  Beta/alfa ratio: Inhibition towards Group 2: -80,3%
  Total cholesterol: Inhibition in comparison with Group 2: -50,3%
  Total lipids: Inhibition in comparison with Group 2: -48,9%
  Triglycerids: Inhibition in comparison with Group 2: -55,5%
[1]; 25, 50 and 100 mg/kg oral, Triton WR-1339 rat
  Dose dependence of activity inhibiting the hyperdislipidemia: depends on the dosage
[1]; Triton WR-1339 rat
  Activity compared with UA: more active than UA in all the considered tests
[1]; Triton WR-1339 rat, listed as sodium ursosulphate (US)
  Activity compared with UA: an activity in some cases higher than that of ursodeoxycholic acid
[2]; 1000 mg/kg
  mortality at 192 h: 0%
[2]; 2000 mg/kg
  mortality at 192 h: 0%
[2]; 3000 mg/kg
  mortality at 192 h: 0%
[2]; 4000 mg/kg
  mortality at 192 h: 0%
[2]; 5000 mg/kg
  mortality at 192 h: 20%
[2]; 6000 mg/kg
  mortality at 192 h: 40%
Rat [3]; 1000 mg/kg
  Symptomatology: N
  Died animals: 0 animals
Rat [3]; 2000 mg/kg
  Symptomatology: N
  Died animals: 0 animals
Rat [3]; 3000 mg/kg
  Symptomatology: D
  Died animals: 0 animals
Rat [3]; 4000 mg/kg
  Symptomatology: D
  Died animals: 0 animals
Rat [3]; 5000 mg/kg
  Symptomatology: D
  Died animals: 2 animals
Rat [3]; 6000 mg/kg
  Symptomatology: D
  Died animals: 4 animals
Rat [3]; [13]
  LD50: the LD50 was not reached up to the administered doses
[4]; 500 mg/kg
  mortality at 192 h: 0%
[4]; 600 mg/kg
  mortality at 192 h: 0%
[4]; 700 mg/kg
  mortality at 192 h: 0%
[4]; 800 mg/kg
  mortality at 192 h: 0%
[4]; 900 mg/kg
  mortality at 192 h: 10%
Rat [5]; 500 mg/kg
  Symptomatology: N
  Died animals: 0 animals
Rat [5]; 600 mg/kg
  Symptomatology: N
  Died animals: 0 animals
Rat [5]; 700 mg/kg
  Symptomatology: D
  Died animals: 0 animals
Rat [5]; 800 mg/kg
  Symptomatology: D
  Died animals: 0 animals
Rat [5]; 900 mg/kg
  Symptomatology: D
  Died animals: 2 animals
Rat [5]; [13]
  LD50: the LD50 was not reached up to the administered doses
[6]; 400 mg/kg
  mortality at 192 h: 0%
[6]; 500 mg/kg
  mortality at 192 h: 0%
[6]; 600 mg/kg
  mortality at 192 h: 0%
[6]; 650 mg/kg
  mortality at 192 h: 10%
[6]; 700 mg/kg
  mortality at 192 h: 10%
[6]; 750 mg/kg
  mortality at 192 h: 20%
Rat [7]; 400 mg/kg
  Symptomatology: N
  Died animals: 0 animals
Rat [7]; 500 mg/kg
  Symptomatology: N
  Died animals: 0 animals
Rat [7]; 600 mg/kg
  Symptomatology: D
  Died animals: 0 animals
Rat [7]; 650 mg/kg
  Symptomatology: D + C
  Died animals: 1 animals
Rat [7]; 700 mg/kg
  Symptomatology: D + C
  Died animals: 1 animals
Rat [7]; 750 mg/kg
  Symptomatology: D + C
  Died animals: 2 animals
Rat [7]; [13]
  LD50: the LD50 was not reached up to the administered doses
[8]; listed as Sodium ursosulphate
  Solubility in water: very soluble in water
[8]; listed as sodium ursosulphate
  Solubility in water: very soluble in water
[9]
  Toxicity compared with ursodeoxycholic acid: does not show any significative differences and maintains the values already known for ursodeoxycholic acid
